# Measurements: patent publication US20230128198A1, “NOVEL HETEROCYCLIC COMPOUNDS USEFUL AS AURORA A SELECTIVE INHIBITORS” (JACOBIO PHARMACEUTICALS CO., LTD., priority 2020, published 2023)
# How the values were obtained:
# [1] = test system: NCI-H446 and NCI-H69 human small cell lung cancer xenograft model; experiment: In vivo anti-tumor efficacy, xenograft model; set-up: species or system BALB/c nude mice; settings: 15 mg/kg po., BID × 10 days, QD × 19 days, treatment 29 days
# Protocol: This study is to examine the anti-tumor efficacy of test compounds in NCI-H446 and NCI-H69 human small cell lung cancer xenograft model in BALB/c nude mice. Each mouse was inoculated subcutaneously at the right flank region with NCI-H446 (3×10^6) and NCI-H69 cells (5×10^6) in 0.1 mL of PBS and Matrigel (1:1) for tumor development. The mouse were randomized according to tumor size and weight, the treatment began when the mean tumor size reached 100-200 mm^3. Anti-tumor activity was assessed according to relative tumor inhibition rate (TGI).
# Tumor volumes were measured in two dimensions using a caliper, and the volume was expressed in mm^3 using the formula: V=0.5a×b^2 where a and bare the long and short diameters of the tumor, respectively. Statistical analysis of difference in tumor volume among the groups were performed using one-way ANOVA. All data was analyzed using SPSS 22.0 software. p<0.05 was considered to be statistically significant.
# [2] = molecular target: T1, Aurora A (Homo sapiens, UniProt O14965); experiment: Aurora A kinase assay (mobility shift assay); format: biochemical
# T1 sequence (O14965 1-403): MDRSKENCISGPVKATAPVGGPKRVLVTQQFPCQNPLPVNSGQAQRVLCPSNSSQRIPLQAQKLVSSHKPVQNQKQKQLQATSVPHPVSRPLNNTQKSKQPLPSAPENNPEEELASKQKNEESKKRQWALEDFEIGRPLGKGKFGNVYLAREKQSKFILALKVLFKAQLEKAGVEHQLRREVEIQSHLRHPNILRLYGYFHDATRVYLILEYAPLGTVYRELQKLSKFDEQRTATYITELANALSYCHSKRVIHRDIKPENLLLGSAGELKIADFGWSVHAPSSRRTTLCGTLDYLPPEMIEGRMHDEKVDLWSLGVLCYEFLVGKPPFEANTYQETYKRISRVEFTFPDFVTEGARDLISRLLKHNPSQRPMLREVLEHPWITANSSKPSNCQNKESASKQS
# Protocol: (§1) Example A: Evaluation of Aurora a and Aurora B Inhibitory Effect—Kinase Assay
# (§2) The inhibitory activities of a test compound against Aurora A and Aurora B were measured according to the following method.
# (§3) The IC50 value of Aurora A and Aurora B kinase was performed by Sundia MediTech Co. Ltd. using Mobility shift assay.
# (§4) • (1) Prepare a 1× kinase buffer [50 mM 4-(2-hydroxyethyl)-1-piperazineethanesulfonic acid (HEPES), PH 7.5, 0.01% Brij-35, 10 mM MgCl2, 2 mM dithiothreitol (DTT)]. • (2) Prepare compound:
# The testing compound was dissolved with DMSO. The testing compound was diluted up to 100× final concentration in a 384-well plate. Transfer 250 nL of the compound dilution to a 384-well assay plate using Echo 550. […] Add 10 μL of the 1× kinase buffer to the negative control well. • (5) The 384-well plate was centrifuged at 1000 rpm for 30 seconds and incubated at room temperature for 10 min. • (6) A mixture of ATP and Kinase substrate 21 with a final concentration of 25/15× was prepared by the 1× kinase buffer. • (7) Add 15 µL of the mixture of 25/15×ATP and kinase substrate solution 21 to start reaction. • (8) The 384-well plate was centrifuged at 1000 rpm for 30 seconds and incubated at room temperature. • (9) 30 µL of the stop and detection buffer was added to stop the kinase reaction and centrifuged at 1000 rpm for 30 seconds. • (10) Collect data on Caliper EZ ReaderII. […]
# [3] = molecular target: Aurora B (Homo sapiens, UniProt Q96GD4); experiment: Aurora B kinase assay (mobility shift assay); format: biochemical; settings: ratio of Aurora B IC50 to Aurora A IC50
# Sequence of Aurora B (Q96GD4 whole entry): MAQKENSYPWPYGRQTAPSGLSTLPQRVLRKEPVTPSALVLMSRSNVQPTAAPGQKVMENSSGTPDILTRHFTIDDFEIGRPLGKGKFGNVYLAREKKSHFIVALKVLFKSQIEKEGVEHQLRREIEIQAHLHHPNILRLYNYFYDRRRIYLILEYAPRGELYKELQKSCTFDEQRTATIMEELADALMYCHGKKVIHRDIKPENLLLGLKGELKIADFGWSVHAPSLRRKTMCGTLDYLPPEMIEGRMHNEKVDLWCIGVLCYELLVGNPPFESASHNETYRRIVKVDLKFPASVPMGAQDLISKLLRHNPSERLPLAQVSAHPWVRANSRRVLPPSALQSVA
# Protocol: as §1, §2, §3, §4
# The testing compound was dissolved with DMSO. The testing compound was diluted up to 100× final concentration in a 384-well plate. Transfer 250 nL of the compound dilution to a 384-well assay plate using Echo 550. 100% DMSO of 250 nL was added to the negative control well and the positive control well. • (3) Prepare a 2.5× enzyme solution using the above 1× kinase buffer. • (4) Add 10 μL of the 2.5× enzyme solution to the compound well and the positive control well of the 384-well assay plate.
# Conversion %_sample is conversion rate data of samples. Conversion %_min is mean value of negative control (conversion rate data without enzyme activation). Conversion %_max is mean positive control (conversion rate data without compound).
# The log of concentration is on the X axis, and the percentage inhibition is on the Y axis.
# [4] = PK in rat; format: in vivo, SD male rats
# Protocol: The compounds were dissolved into 10% DMSO, 30% PEG400, and 60% saline to obtain a solution. SD male rats were given the compound orally and intravenously. Then plasma samples were collected at 0 hour (pre-dose), 0.25, 0.5, 1, 2, 4, 7, 24 hours post-dose. Plasma drug concentration was detected by LC-MS/MS. Pharmacokinetic parameters were calculated using WinNonlin's software with non-compartmental model.
SMILES,TGI TV(%) [1],TV (mean ± sem) [1],also measured
"Cc1cc(Nc2nc(C[C@@]3(C(=O)O)CCN(Cc4cccc(Cl)c4F)[C@H](C)C3)ccc2F)[nH]n1 [Example 5, (2R,4R)-1-(3-chloro-2-fluorobenzyl)-4-((5-fluoro-6-((3-methyl-1H-pyrazol-5-yl)amino)pyridin-2-yl)methyl)-2-methylpiperidine-4-carboxylic acid]",98%,27 ± 5 mm^3,
"Cc1cc(Nc2cc(C)c(F)c(C[C@@]3(C(=O)O)CCN(Cc4cccc(Cl)c4F)[C@H](C)C3)n2)n[nH]1 [Example 49, (2R,4R)-1-(3-chloro-2-fluorobenzyl)-4-((3-fluoro-4-methyl-6-((5-methyl-1H-pyraz-ol-3-yl)amino)pyridin-2-yl)methyl)-2-methylpiperidine-4-carboxylic acid]",90%,160 ± 26 mm^3,
"CC(=O)c1cc(Nc2cc(C)[nH]n2)nc(CC2(C(=O)O)CCN(Cc3cccc(Cl)c3F)CC2)c1F [Example 69, 4-((4-acetyl-3-fluoro-6-((5-methyl-1H-pyrazol-3-yl)amino)pyridin-2-yl)methyl)-1-(3-chloro-2-fluorobenzyl) piperidine-4-carboxylic acid]",,,IC50 [2]: 910 pM; IC50 Ratio Aur B/Aur A [3]: 1444
"Cc1cc(Nc2cc(Cl)c(F)c(C[C@@]3(C(=O)O)CCN(Cc4cccc(Cl)c4F)[C@H](C)C3)n2)n[nH]1 [Example 72, (2R,4R)-1-(3-chloro-2-fluorobenzyl)-4-((4-chloro-3-fluoro-6-((5-methyl-1H-pyrazol-3-yl)amino)pyridin-2-yl)methyl)-2-methylpiperidine-4-carboxylic acid]",89%,176 ± 25 mm^3,
"Cc1cc(Nc2nc(C[C@@]3(C(=O)O)CCN(Cc4cccc(Cl)c4F)[C@H](C)C3)cc(C)c2F)n[nH]1 [Example 78, (2R,4R)-1-(3-chloro-2-fluorobenzyl)-4-((5-fluoro-4-methyl-6-((5-methyl-1H-pyrazol-3-yl)amino)pyridin-2-yl)methyl)-2-methylpiperidine-4-carboxylic acid]",96%,65 ± 14 mm^3,
Cc1cc(Nc2ccc(F)c(C[C@@]3(C(=O)O)CCN(Cc4cccc(Cl)c4F)[C@H](C)C3)n2)n[nH]1 [LY3295668],,,CL ([4]; IV: 3 mg/kg): 1.52 mL/min/kg; Vss ([4]; IV: 3 mg/kg): 0.29 L/kg; AUClast ([4]; PO: 10 mg/kg): 91211 ng·h/mL; Cmax ([4]; PO: 10 mg/kg): 15033 ng/mL; t½ ([4]; PO: 10 mg/kg): 3.37 h; F % ([4]; PO: 10 mg/kg vs IV: 3 mg/kg): 81%
